Assay results as given in US10143688B2, “Mesylic acid salt of acylthiourea compound, crystal of the same, and process for producing these” (priority 2015, dated 2018).

Assays:
[1] = Solid stability test (purity by liquid chromatography, XRD, TG-DTA after storage); type: physicochemical; settings: 1 month at 40° C. (open system), 40° C. (humidity, 75%), or 60° C. (open system)
Description: An examination by liquid chromatography was made under the following test conditions.
Apparatus: Hitachi L-2455
Mobile phase A: 10 mM aqueous Na2HPO4 solution (pH, 6.5)
Mobile phase B: acetonitrile
Column: GL Science Inertsil ODS-3; 4.6×150 mm; S=5 μm
Measuring wavelength: 220 nm
(open system), 40° C. (humidity, 75%), or 60° C. (open system). Thereafter, the crystals were examined for purity by liquid chromatography. As a result, the change in purity through the test was 0.1% or less under all those conditions.

[2] = Solubility measurement (solubility measuring method of The Japanese Pharmacopoeia); settings: 37° C.

CNC(=O)c1cc2c(Oc3ccc(NC(=S)NC(=O)Cc4ccccc4)cc3F)ccnc2cc1OC.CS(=O)(=O)O [Example 1, mesylic acid salt of 4-(2-fluoro-4-(3-(2-phenylacetyl)thioureido)phenoxy)-7-methoxy-N-methylquinoline-6-carboxamide]
change in examinations by XRD and TG-DTA [1]: no marked change | change in purity through the test ([1]; all those conditions): ≤ 0.1% | Solubility, Taurocholic acid ([2]; 20-mM aqueous taurocholic acid solution): 120 µg/mL | Solubility, FeSSIF ([2]; FeSSIF): 11 µg/mL | Solubility, Dissolution-test second liquid ([2]; dissolution-test second liquid according to The Japanese Pharmacopoeia): 1.0 µg/mL | Solubility, Purified water ([2]; purified water): 35 µg/mL
